Laboratory results taken from patent US20190287644A1, “Correlation Method To Identify Relevant Genes For Personalized Treatment Of Complex Disease” (Northeastern University, priority 2018, published 2019).

Experiments:
[1] = tested on: neonatal rat ventricular myocytes (NRVMs); experiment: Cardiomyocyte cell cross-sectional area; format: cell-based; settings: cells transfected with control siRNA, following ISO/PE treatment
From the text: (§1) Right ventricular myocytes were isolated and cultured, as reported using 2-4 day old rats. Myocytes and fibroblasts were separated with Percoll density gradient. For knockdown experiments cells were transfected with Hes1 siRNA using lipofectamine RNAimax (life technologies).
Quantification of cardiomyocyte cell cross-sectional area was done following transfection with either control or Hes1 siRNA and a 48-hour treatment with control or isoproterenol or phenylepherine containing media. Images were taken on a Nikon Eclipse TE2000-U microscope. Images were analyzed using the Nikon Imagine System (NIS). 150 cells were used to compute the SEM.

[2] = tested on: Hybrid Mouse Diversity Panel (HMDP) strains; experiment: ISO-induced cardiac hypertrophy (total heart weight) in the Hybrid Mouse Diversity Panel; format: in vivo; settings: across HMDP strains, three weeks after implantation of ISO pump (30 mg per kg per day, 21 days)
Procedure: 30 mg per kg body weight per day of Isoproterenol (ISO) was administered for 21 days in 8-10 week old female mice using ALZET osmotic mini-pumps, which were surgically implanted intraperitoneally. All animal experiments were conducted following guidelines established and approved by the University of California, Los Angeles Institutional Animal Care and Use Committee (IACUC) and housed in an IACUC-approved vivarium with daily monitoring by vivarium personnel.
As each mouse in a strain is genetically identical, several mice from the same strain were used for measuring the cardiac hypertrophic response to ISO treatment. […] Cardiac hypertrophy for a given strain was calculated as the increase in average total heart weight after ISO treatment compared to control mice.
One can also perform an entirely novel type of differential gene expression analysis owing to the fact that, in addition to control and treated subjects belonging to the same strain having the same genetic background, the change of heart mass in response to ISO, i.e., the ratio m′i/mi of total heart mass before (mi) and after ISO treatment (m′i) for strain i, can be measured for all strains (i=1, 2, . . . , N) to assess the degree of hypertrophy among different strains. […]

Nppa and Nppb = experiment: Expression of hypertrophic markers Nppa and Nppb in neonatal rat ventricular myocytes (qPCR); format: cell-based; settings: NRVMs transfected with control siRNA
Procedure: as §1
RNA isolation from cells was performed using Qiazol lysis reagent. cDNA synthesis was performed using the High Capacity Reverse Transcription cDNA Kit (Life Technologies). qPCR was performed using the LightCycler 480 (Roche).

Row | SMILES | cellular cross-sectional area [1] | increase of heart mass [2] [%] | increase of Nppa expression (Nppa and Nppb) [fold] | increase of Nppb expression (Nppa and Nppb) [fold]
1 | CC(C)NCC(O)c1ccc(O)c(O)c1 (stereo not shown) [ISO, isoproterenol] | doubled | ≤ 80 | 3.5 | 7.9
2 | CNC[C@H](O)c1cccc(O)c1 [PE, phenylephrine] | doubled |  | 11 | 13
